Assays:
[1] = test system: human large cell lung cancer NCI-H460 cell; experiment: MTT proliferation assay of Example 1, NCI-H460; assay type: cell-based; settings: NCI-H460, 96 h, 4 days
Procedure: (§1) The cells were digested by trypsinase and centrifuged at 800 rpm for 5 minutes, the supernatant was discarded, and the residual was resuspended with fresh medium (1640 medium+10% FRS) and counted. The cells were seeded into 96well cell culture plate with a density of 2000/4000 cells per well and incubated overnight in a 5% CO2 incubator at 37° C. The stock solutions of the test substances were serially diluted to 8 concentrations by DMSO at the ratios of 1:3 and 1:10, respectively. 5 μL diluent of each concentration was added to […] (25 times diluted) and mixed by shaking. The overnight cell plates were taken and the culture medium was removed, 195 μL of fresh medium was added to each well, and 5 μL of diluted medium containing the corresponding concentration of the test compound was added respectively (the final concentration of DMSO is 1%), and the culture plate was then placed in a 5% CO2 incubator at 37° C for 4 days. After removing the original solution, […] of fresh serum-free DMEM medium containing MTT (0.5 mg/mL) was added to each well, the culture was continued. After 4 hours, the original solution was removed, 100 μL, of DMSO was added to each well, the 96-well plates were shaken for 10 minutes in the dark and placed in a multi-function reader to read the absorbance at the wavelength of 552/690 nm. […]

[2] = test system: human colon cancer LoVo cell; experiment: MTT proliferation assay, LoVo; assay type: cell-based; settings: Homo sapiens, LoVo, 96 h, MTT, 4 days; read-out: IC50 (nM), proliferation of LoVo cell
Procedure: (§2) The cells were seeded into 96-well cell culture plate with a density of 2000/4000 cells per well and incubated overnight in a 5% CO2 incubator at 37° C. […] 5 μL diluent of each concentration was added to 120 μL of medium (25 times diluted) and mixed by shaking. The overnight cell plates were taken and the culture medium was removed, 195 μL of fresh medium was added to each well, and 5 μL of diluted medium containing the corresponding concentration of the test compound was added respectively (the final concentration of DMSO is 1%), and the culture plate was then placed in a 5% CO2 incubator at 37° C. for 4 days. After removing the original solution, 100 SEL of fresh serum-free DMEM medium containing MTT (0.5 mg/mL) was added to each well, the culture was continued. […] Cell viability (%)=(ODcompound−ODbackground)/ODDMSO−ODbackground)×100. GraphPad Prism 6.0 was used to analyze the data. The inhibitory activity of compounds on cell proliferation was plotted based on cell viability and the logarithm of compound concentration. The IC5.0 value was fitted by a sigmoidal dose response curve equation Y=100/(1+10^(LogC-LogIC50)), wherein C was the concentration of compound.

[3] = test system: human ovarian cancer OVCAR-3 cell; experiment: MTT proliferation assay of Example 1, OVCAR-3; assay type: cell-based; settings: OVCAR-3, 96 h, 4 days
Procedure: as §1

[4] = Pharmacokinetics following single oral administration to mice; assay type: in vivo; settings: mouse, CD-1 (ICR) mice, gavage 10 mg/kg, 0.5% methylcellulose/water suspension, plasma
Procedure: The compound of the present invention was formulated into a 0.5% methylcellulose/water uniform suspension, and was administered to CD-1 (ICR) mice by gavage at 10 mg/kg. Plasma samples were collected at 8 time points of 0.250, 0.500, 1.00, 2.00, 4.00, 6.00, 8.00 and 24.0 hours post-dose. Concentrations of the compound were determined by LC-MS/MS method.

[5] = test system: human lung cancer NCI-H460 cell; experiment: MTT proliferation assay, NCI-H460; assay type: cell-based; settings: NCI-H460, 96 h, MTT, 4 days, read-out: IC50 (nM), proliferation of NCI-H460 cell
Procedure: The cells were digested by trypsinase and centrifuged at 800 rpm for 5 minutes, the supernatant was discarded, and the residual was resuspended with fresh medium […]) and counted.
as §2, with “μL” for “SEL”, “(%)=(ODcompound−ODbackground)/(ODDMSO−ODbackground)×100.” for “(%)=(ODcompound−ODbackground)/ODDMSO−ODbackground)×100.”, “IC50” for “IC5.0”, “[…],” for “Y=100/(1+10^(LogC-LogIC50)),”

[6] = test system: human non-small cell lung cancer A549 cell; experiment: MTT proliferation assay of Example 1, A549; assay type: cell-based; settings: A549, 96 h, 4 days
Procedure: as §1

[7] = test system: HCT116 (human colorectal adenocarcinoma cell); experiment: MTT proliferation assay of Example 1, HCT116; assay type: cell-based; settings: HCT-116, 96 h, 4 days
Procedure: as §1

ATR/ATRIP enzyme = biological target: T1, ATR/ATRIP enzyme (Homo sapiens, UniProt Q13535); experiment: ATR enzyme activity experiment (HTRF); assay type: biochemical; settings: p53 substrate, 30 min room temperature, read-out: IC50 (nM), inhibitory effect on ATR kinase activity
T1 construct: purchased Eurofins 14-953
T1 sequence (Q13535 whole entry): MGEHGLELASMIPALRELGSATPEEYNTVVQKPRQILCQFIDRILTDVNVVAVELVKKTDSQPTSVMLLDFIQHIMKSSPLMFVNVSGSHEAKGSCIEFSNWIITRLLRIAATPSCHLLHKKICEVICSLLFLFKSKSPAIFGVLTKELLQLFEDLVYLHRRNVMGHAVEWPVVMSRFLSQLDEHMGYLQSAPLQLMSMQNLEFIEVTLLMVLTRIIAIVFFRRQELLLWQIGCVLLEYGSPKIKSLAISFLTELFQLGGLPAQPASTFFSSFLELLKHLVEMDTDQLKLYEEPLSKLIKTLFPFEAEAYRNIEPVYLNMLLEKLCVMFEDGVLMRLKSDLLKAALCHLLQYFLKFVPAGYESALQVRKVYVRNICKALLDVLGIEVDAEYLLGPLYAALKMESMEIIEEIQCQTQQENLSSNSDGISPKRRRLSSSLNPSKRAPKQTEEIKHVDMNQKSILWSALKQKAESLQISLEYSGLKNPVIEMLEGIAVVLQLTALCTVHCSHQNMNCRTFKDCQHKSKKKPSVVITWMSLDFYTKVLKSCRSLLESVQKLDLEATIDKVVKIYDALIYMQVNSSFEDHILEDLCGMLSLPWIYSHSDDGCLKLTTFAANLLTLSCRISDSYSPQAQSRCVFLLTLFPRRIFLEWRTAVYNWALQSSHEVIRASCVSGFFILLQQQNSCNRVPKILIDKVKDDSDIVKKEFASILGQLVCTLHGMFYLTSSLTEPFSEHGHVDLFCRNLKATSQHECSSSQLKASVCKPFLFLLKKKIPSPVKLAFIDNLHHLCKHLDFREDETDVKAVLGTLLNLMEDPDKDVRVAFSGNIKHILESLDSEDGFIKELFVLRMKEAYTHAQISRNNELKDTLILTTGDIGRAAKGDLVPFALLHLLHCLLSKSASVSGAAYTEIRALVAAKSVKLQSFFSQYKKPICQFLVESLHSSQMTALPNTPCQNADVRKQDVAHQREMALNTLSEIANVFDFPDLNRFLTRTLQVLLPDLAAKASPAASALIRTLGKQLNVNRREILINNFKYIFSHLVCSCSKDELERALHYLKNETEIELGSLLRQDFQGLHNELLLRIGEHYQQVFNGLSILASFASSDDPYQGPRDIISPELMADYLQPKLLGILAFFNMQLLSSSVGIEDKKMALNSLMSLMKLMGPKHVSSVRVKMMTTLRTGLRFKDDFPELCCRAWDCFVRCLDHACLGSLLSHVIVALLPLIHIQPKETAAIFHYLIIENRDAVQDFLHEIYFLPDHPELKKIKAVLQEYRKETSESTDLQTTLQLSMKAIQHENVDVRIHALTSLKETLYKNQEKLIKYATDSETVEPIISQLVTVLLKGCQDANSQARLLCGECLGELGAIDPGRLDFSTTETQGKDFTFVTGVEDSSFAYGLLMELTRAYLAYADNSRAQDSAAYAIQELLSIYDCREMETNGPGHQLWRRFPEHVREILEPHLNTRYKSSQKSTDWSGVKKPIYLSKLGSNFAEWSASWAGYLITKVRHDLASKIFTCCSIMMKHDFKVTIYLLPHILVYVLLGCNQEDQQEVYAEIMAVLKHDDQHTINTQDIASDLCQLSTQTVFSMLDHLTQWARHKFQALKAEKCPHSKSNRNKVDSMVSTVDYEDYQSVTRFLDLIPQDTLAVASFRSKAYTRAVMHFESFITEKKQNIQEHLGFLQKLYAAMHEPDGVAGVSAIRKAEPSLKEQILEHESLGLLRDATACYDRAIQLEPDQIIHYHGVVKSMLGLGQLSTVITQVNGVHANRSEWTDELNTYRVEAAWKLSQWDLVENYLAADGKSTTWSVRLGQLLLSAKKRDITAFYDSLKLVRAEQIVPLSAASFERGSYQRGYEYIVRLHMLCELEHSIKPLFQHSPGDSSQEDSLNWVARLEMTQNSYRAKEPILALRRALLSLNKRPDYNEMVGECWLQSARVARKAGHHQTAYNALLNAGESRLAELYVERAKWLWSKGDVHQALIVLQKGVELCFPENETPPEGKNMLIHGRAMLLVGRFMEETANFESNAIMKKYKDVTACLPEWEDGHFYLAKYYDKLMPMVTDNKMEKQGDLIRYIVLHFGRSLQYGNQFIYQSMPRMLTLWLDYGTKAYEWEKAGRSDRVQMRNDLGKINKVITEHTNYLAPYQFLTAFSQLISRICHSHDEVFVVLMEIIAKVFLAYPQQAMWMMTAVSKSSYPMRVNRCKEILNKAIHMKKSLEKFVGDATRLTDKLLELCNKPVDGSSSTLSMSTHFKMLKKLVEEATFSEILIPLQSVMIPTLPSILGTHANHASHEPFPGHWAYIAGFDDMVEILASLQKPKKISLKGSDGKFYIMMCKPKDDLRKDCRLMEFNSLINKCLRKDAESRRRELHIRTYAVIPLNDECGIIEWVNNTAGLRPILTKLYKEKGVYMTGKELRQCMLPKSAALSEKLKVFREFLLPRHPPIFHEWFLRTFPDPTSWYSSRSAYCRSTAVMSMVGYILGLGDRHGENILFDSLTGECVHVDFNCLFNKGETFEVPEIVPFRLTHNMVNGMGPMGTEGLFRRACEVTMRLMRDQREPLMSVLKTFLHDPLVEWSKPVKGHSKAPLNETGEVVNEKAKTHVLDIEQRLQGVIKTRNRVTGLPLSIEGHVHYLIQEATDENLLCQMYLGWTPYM
T1 sequence (Q8WXE1 whole entry partner): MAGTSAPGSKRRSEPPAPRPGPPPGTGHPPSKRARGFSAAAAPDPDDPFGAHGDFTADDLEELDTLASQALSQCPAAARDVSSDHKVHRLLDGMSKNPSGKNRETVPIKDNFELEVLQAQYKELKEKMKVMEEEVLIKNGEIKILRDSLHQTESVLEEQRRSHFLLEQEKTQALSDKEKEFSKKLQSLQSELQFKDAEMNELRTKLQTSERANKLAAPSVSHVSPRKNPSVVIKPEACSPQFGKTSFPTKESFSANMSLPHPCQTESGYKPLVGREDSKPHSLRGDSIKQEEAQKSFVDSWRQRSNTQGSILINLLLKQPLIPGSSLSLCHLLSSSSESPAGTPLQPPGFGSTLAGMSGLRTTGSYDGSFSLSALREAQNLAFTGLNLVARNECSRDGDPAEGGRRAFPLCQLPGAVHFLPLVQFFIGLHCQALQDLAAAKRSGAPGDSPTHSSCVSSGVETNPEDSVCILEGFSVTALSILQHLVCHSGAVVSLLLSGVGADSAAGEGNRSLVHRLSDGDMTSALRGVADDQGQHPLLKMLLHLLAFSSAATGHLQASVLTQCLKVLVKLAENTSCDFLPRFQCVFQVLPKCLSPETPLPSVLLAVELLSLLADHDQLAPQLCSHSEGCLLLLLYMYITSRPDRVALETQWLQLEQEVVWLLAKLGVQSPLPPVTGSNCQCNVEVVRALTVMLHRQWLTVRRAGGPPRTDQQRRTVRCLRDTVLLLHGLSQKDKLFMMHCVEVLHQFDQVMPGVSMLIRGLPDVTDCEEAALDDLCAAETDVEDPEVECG
Procedure: The mixture was centrifuged at 1000 rpm for 1 minute, and reacted at room temperature protected from light for 30 minutes. Then 5 μL of EDTA stop solution (250 mM) was added to stop the reaction.

[8] = test system: human breast cancer HCC1806 cell; experiment: MTT proliferation assay of Example 1, HCC1806; assay type: cell-based; settings: HCC1806, 96 h, 4 days
Procedure: as §1

Compound `Cc1nc(-c2ccn[nH]2)n2nc(N3CCOC[C@H]3C)cc(-c3ccnn3C)c12` [Example 1, (R)-3-methyl-4-(5-methyl-4-(1-methyl-1H-pyrazol-5-yl)-7-(1H-pyrazol-5-yl)imidazo[1,5-b]pyridazin-2-yl)morpholine] has an IC50 [1] of 19 nM, an IC50 [2] of 26.7 nM and an IC50 [3] of 182 nM. It also gave an AUC(0-inf) [4] of 98500 ng·h/mL, an AUC(0-t) [4] of 98500 ng·h/mL and a Cmax [4] of 9340 ng/mL. It also gave a half-life [4] of 1.64 h, an IC50 [5] of 16.5 nM and an IC50 [6] of 157 nM. For the same compound, the IC50 [7] was 22.5 nM, the IC50 (ATR/ATRIP enzyme) was 1 nM and the IC50 [8] was 38.8 nM.

Reference: patent US20240059695A1, “SUBSTITUTED IMIDAZO[1,5-b]PYRIDAZINE COMPOUNDS AS KINASE INHIBITORS AND USE THEREOF” (IMPACT THERAPEUTICS (SHANGHAI), INC, priority 2020, published 2024)
